Where two headings read alike, the source gives them in different places. Where a SMILES comes first, the peptide text is derived from it. Bridges are numbered along the chain shown (N, C = ends). [ ]: non-standard residue; d: D form. ξ: configuration not given here. Phe(4-F) = N[C@@H](Cc1ccc(F)cc1)C(=O)O; NMeIle(3ξ) = CCC(C)[C@H](NC)C(=O)O; NMeF = CN[C@@H](Cc1ccccc1)C(=O)O; NMeL = CN[C@@H](CC(C)C)C(=O)O; NMeNle = CCCC[C@H](NC)C(=O)O; NMeV = CN[C@H](C(=O)O)C(C)C; dPip = O=C(O)[C@H]1CCCCN1; Orn = NCCC[C@H](N)C(=O)O
Molecular target: T1, Human PD-L1/PD-1 (Homo sapiens, UniProt Q9NZQ7)
T1 construct: TVMV protease cleavage site (C); made in house; host or cells: HEK293T cells
T1 sequence (Q9NZQ7 with tags, fused parts or gaps): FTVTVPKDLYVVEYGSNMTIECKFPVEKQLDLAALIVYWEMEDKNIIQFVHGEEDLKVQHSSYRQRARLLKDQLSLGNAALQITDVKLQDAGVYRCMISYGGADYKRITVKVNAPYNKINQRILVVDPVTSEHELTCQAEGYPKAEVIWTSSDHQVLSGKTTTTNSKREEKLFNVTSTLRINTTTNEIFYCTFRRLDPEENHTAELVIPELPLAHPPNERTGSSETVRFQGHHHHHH
Test: HTRF Human PD-L1/PD-1 binding assay (PD-1-Ig/PD-L1-His)
Conditions: PD-L1-His 10 nM, PD-1-Ig 20 nM
Procedure, shortened: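 Compound preincubated 15 min with PD-L1-His (10 nM final), then PD-1-Ig (20 nM final) added for 15 min in dPBS with 0.1% BSA and 0.05% Tween-20. Detection by Eu-cryptate anti-Ig (1 nM) and APC anti-His (20 nM) after 30 min; 665/620 nm HTRF ratio. Proteins expressed in HEK293T.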

[1] = class symbol, read-out: HTRF Human PD-L1/PD-1 Binding Assay IC50 Range

SMILES	IC50 [1] [µM]	IC50 (read-out: HTRF Human PD-L1/PD-1 Binding Assay IC50) [µM]
CCCC[C@H]1C(=O)N2CCC[C@@H]2C(=O)N[C@@H](CC(=O)O)C(=O)N[C@@H](C(C)C)C(=O)N(C)[C@@H](C(C)C)C(=O)N[C@@H](CCC(N)=O)C(=O)N2CCC[C@@H]2C(=O)N[C@@H](Cc2c[nH]c3ccccc23)C(=O)N[C@@H](Cc2ccc(O)cc2)C(=O)N[C@@H](CC(C)C)C(=O)N[C@H](C(=O)NCC(N)=O)CSCC(=O)N[C@@H](Cc2ccc(F)cc2)C(=O)N(C)[C@@H](Cc2ccccc2)C(=O)N1C [Example 9245] ({CH2CO}-[Phe(4-F)][NMeF][NMeNle][dP]DV[NMeV]Q[dP]WYLCG-NH2; thioether N-13)	1 to 10	–
CCCC[C@H]1C(=O)N2CCC[C@@H]2C(=O)N[C@@H](CC(=O)O)C(=O)N[C@@H](C(C)C)C(=O)N(C)[C@@H](C(C)C)C(=O)N[C@@H](CCC(N)=O)C(=O)N2CCCC[C@@H]2C(=O)N[C@@H](Cc2c[nH]c3ccccc23)C(=O)N[C@@H](Cc2ccc(O)cc2)C(=O)N[C@@H](CC(C)C)C(=O)N[C@H](C(=O)NCC(N)=O)CSCC(=O)N[C@@H](Cc2ccc(F)cc2)C(=O)N(C)[C@@H](Cc2ccccc2)C(=O)N1C [Example 9246] ({CH2CO}-[Phe(4-F)][NMeF][NMeNle][dP]DV[NMeV]Q[dPip]WYLCG-NH2; thioether N-13)	1 to 10	–
CCCC[C@H]1C(=O)N2CCC[C@@H]2C(=O)N[C@@H](CC(=O)O)C(=O)N[C@@H](C(C)C)C(=O)N(C)[C@@H](C(C)C)C(=O)N[C@@H](CCC(N)=O)C(=O)N2CCC[C@@H]2C(=O)N[C@@H](Cc2c[nH]c3ccccc23)C(=O)N[C@@H](Cc2ccc(O)cc2)C(=O)N[C@@H](CCCN)C(=O)N[C@H](C(=O)NCC(N)=O)CSCC(=O)N[C@@H](Cc2ccc(F)cc2)C(=O)N(C)[C@@H](Cc2ccccc2)C(=O)N1C [Example 9247] ({CH2CO}-[Phe(4-F)][NMeF][NMeNle][dP]DV[NMeV]Q[dP]WY[Orn]CG-NH2; thioether N-13)	1 to 10	–
CCCC[C@H]1C(=O)N2CCC[C@@H]2C(=O)N[C@@H](CC(=O)O)C(=O)N[C@@H](C(C)C)C(=O)N(C)[C@@H](C(C)C)C(=O)N[C@@H](CCC(N)=O)C(=O)N2CCCC[C@@H]2C(=O)N[C@@H](Cc2c[nH]c3ccccc23)C(=O)N[C@@H](Cc2ccc(O)cc2)C(=O)N[C@@H](CCCN)C(=O)N[C@H](C(=O)NCC(N)=O)CSCC(=O)N[C@@H](Cc2ccc(F)cc2)C(=O)N(C)[C@@H](Cc2ccccc2)C(=O)N1C [Example 9248] ({CH2CO}-[Phe(4-F)][NMeF][NMeNle][dP]DV[NMeV]Q[dPip]WY[Orn]CG-NH2; thioether N-13)	1 to 10	–
CCCC[C@H]1C(=O)N2CCC[C@@H]2C(=O)N[C@@H](CC(=O)O)C(=O)N[C@@H](C(C)C)C(=O)N(C)[C@@H](CC(C)C)C(=O)N[C@@H](Cc2ccc(O)cc2)C(=O)N2CCC[C@@H]2C(=O)N[C@@H](Cc2c[nH]c3ccccc23)C(=O)N[C@@H](Cc2ccc(O)cc2)C(=O)N[C@@H](CC(C)C)C(=O)N[C@H](C(=O)NCC(N)=O)CSCC(=O)N[C@@H](Cc2ccc(F)cc2)C(=O)N(C)[C@@H](Cc2ccccc2)C(=O)N1C [Example 9249] ({CH2CO}-[Phe(4-F)][NMeF][NMeNle][dP]DV[NMeL]Y[dP]WYLCG-NH2; thioether N-13)	0.1 to 0.99	–
CCCC[C@H]1C(=O)N2CCC[C@@H]2C(=O)N[C@@H](CC(=O)O)C(=O)N[C@@H](C(C)C)C(=O)N(C)[C@@H](CC(C)C)C(=O)N[C@@H](Cc2ccc(O)cc2)C(=O)N2CCCC[C@@H]2C(=O)N[C@@H](Cc2c[nH]c3ccccc23)C(=O)N[C@@H](Cc2ccc(O)cc2)C(=O)N[C@@H](CC(C)C)C(=O)N[C@H](C(=O)NCC(N)=O)CSCC(=O)N[C@@H](Cc2ccc(F)cc2)C(=O)N(C)[C@@H](Cc2ccccc2)C(=O)N1C [Example 9250] ({CH2CO}-[Phe(4-F)][NMeF][NMeNle][dP]DV[NMeL]Y[dPip]WYLCG-NH2; thioether N-13)	1 to 10	–
CCCC[C@H]1C(=O)N2CCC[C@@H]2C(=O)N[C@@H](CC(=O)O)C(=O)N[C@@H](C(C)C)C(=O)N(C)[C@@H](CC(C)C)C(=O)N[C@@H](Cc2ccc(O)cc2)C(=O)N2CCC[C@@H]2C(=O)N[C@@H](Cc2c[nH]c3ccccc23)C(=O)N[C@@H](Cc2ccc(O)cc2)C(=O)N[C@@H](CCCN)C(=O)N[C@H](C(=O)NCC(N)=O)CSCC(=O)N[C@@H](Cc2ccc(F)cc2)C(=O)N(C)[C@@H](Cc2ccccc2)C(=O)N1C [Example 9251] ({CH2CO}-[Phe(4-F)][NMeF][NMeNle][dP]DV[NMeL]Y[dP]WY[Orn]CG-NH2; thioether N-13)	0.1 to 0.99	–
CCCC[C@H]1C(=O)N2CCC[C@@H]2C(=O)N[C@@H](CC(=O)O)C(=O)N[C@@H](C(C)C)C(=O)N(C)[C@@H](CC(C)C)C(=O)N[C@@H](CCC(N)=O)C(=O)N2CCC[C@@H]2C(=O)N[C@@H](Cc2c[nH]c3ccccc23)C(=O)N[C@@H](Cc2ccc(O)cc2)C(=O)N[C@@H](CC(C)C)C(=O)N[C@H](C(=O)NCC(N)=O)CSCC(=O)N[C@@H](Cc2ccc(F)cc2)C(=O)N(C)[C@@H](Cc2ccccc2)C(=O)N1C [Example 9253] ({CH2CO}-[Phe(4-F)][NMeF][NMeNle][dP]DV[NMeL]Q[dP]WYLCG-NH2; thioether N-13)	1 to 10	–
CCCC[C@H]1C(=O)N2CCC[C@@H]2C(=O)N[C@@H](CC(=O)O)C(=O)N[C@@H](C(C)C)C(=O)N(C)[C@@H](CC(C)C)C(=O)N[C@@H](CCC(N)=O)C(=O)N2CCCC[C@@H]2C(=O)N[C@@H](Cc2c[nH]c3ccccc23)C(=O)N[C@@H](Cc2ccc(O)cc2)C(=O)N[C@@H](CC(C)C)C(=O)N[C@H](C(=O)NCC(N)=O)CSCC(=O)N[C@@H](Cc2ccc(F)cc2)C(=O)N(C)[C@@H](Cc2ccccc2)C(=O)N1C [Example 9254] ({CH2CO}-[Phe(4-F)][NMeF][NMeNle][dP]DV[NMeL]Q[dPip]WYLCG-NH2; thioether N-13)	1 to 10	–
CCCC[C@H]1C(=O)N2CCC[C@@H]2C(=O)N[C@@H](CC(=O)O)C(=O)N[C@@H](C(C)C)C(=O)N(C)[C@@H](CC(C)C)C(=O)N[C@@H](CCC(N)=O)C(=O)N2CCC[C@@H]2C(=O)N[C@@H](Cc2c[nH]c3ccccc23)C(=O)N[C@@H](Cc2ccc(O)cc2)C(=O)N[C@@H](CCCN)C(=O)N[C@H](C(=O)NCC(N)=O)CSCC(=O)N[C@@H](Cc2ccc(F)cc2)C(=O)N(C)[C@@H](Cc2ccccc2)C(=O)N1C [Example 9255] ({CH2CO}-[Phe(4-F)][NMeF][NMeNle][dP]DV[NMeL]Q[dP]WY[Orn]CG-NH2; thioether N-13)	1 to 10	–
CCCC[C@H]1C(=O)N2CCC[C@@H]2C(=O)N[C@@H](CC(=O)O)C(=O)N[C@@H](C(C)C)C(=O)N(C)[C@@H](CC(C)C)C(=O)N[C@@H](CCC(N)=O)C(=O)N2CCCC[C@@H]2C(=O)N[C@@H](Cc2c[nH]c3ccccc23)C(=O)N[C@@H](Cc2ccc(O)cc2)C(=O)N[C@@H](CCCN)C(=O)N[C@H](C(=O)NCC(N)=O)CSCC(=O)N[C@@H](Cc2ccc(F)cc2)C(=O)N(C)[C@@H](Cc2ccccc2)C(=O)N1C [Example 9256] ({CH2CO}-[Phe(4-F)][NMeF][NMeNle][dP]DV[NMeL]Q[dPip]WY[Orn]CG-NH2; thioether N-13)	1 to 10	–
CCCC[C@H]1C(=O)N2CCC[C@@H]2C(=O)N[C@@H](CC(=O)O)C(=O)N[C@@H](C(C)C)C(=O)N(C)[C@@H](C(C)CC)C(=O)N[C@@H](Cc2ccc(O)cc2)C(=O)N2CCC[C@@H]2C(=O)N[C@@H](Cc2c[nH]c3ccccc23)C(=O)N[C@@H](Cc2ccc(O)cc2)C(=O)N[C@@H](CC(C)C)C(=O)N[C@H](C(=O)NCC(N)=O)CSCC(=O)N[C@@H](Cc2ccc(F)cc2)C(=O)N(C)[C@@H](Cc2ccccc2)C(=O)N1C (stereo partly drawn) [Example 9257] ({CH2CO}-[Phe(4-F)][NMeF][NMeNle][dP]DV[NMeIle(3ξ)]Y[dP]WYLCG-NH2; thioether N-13)	1 to 10	–
CCCC[C@H]1C(=O)N2CCC[C@@H]2C(=O)N[C@@H](CC(=O)O)C(=O)N[C@@H](C(C)C)C(=O)N(C)[C@@H](C(C)CC)C(=O)N[C@@H](Cc2ccc(O)cc2)C(=O)N2CCCC[C@@H]2C(=O)N[C@@H](Cc2c[nH]c3ccccc23)C(=O)N[C@@H](Cc2ccc(O)cc2)C(=O)N[C@@H](CC(C)C)C(=O)N[C@H](C(=O)NCC(N)=O)CSCC(=O)N[C@@H](Cc2ccc(F)cc2)C(=O)N(C)[C@@H](Cc2ccccc2)C(=O)N1C (stereo partly drawn) [Example 9258] ({CH2CO}-[Phe(4-F)][NMeF][NMeNle][dP]DV[NMeIle(3ξ)]Y[dPip]WYLCG-NH2; thioether N-13)	–	7.28
CCCC[C@H]1C(=O)N2CCC[C@@H]2C(=O)N[C@@H](CC(=O)O)C(=O)N[C@@H](C(C)C)C(=O)N(C)[C@@H](C(C)CC)C(=O)N[C@@H](Cc2ccc(O)cc2)C(=O)N2CCCC[C@@H]2C(=O)N[C@@H](Cc2c[nH]c3ccccc23)C(=O)N[C@@H](Cc2ccc(O)cc2)C(=O)N[C@@H](CCCN)C(=O)N[C@H](C(=O)NCC(N)=O)CSCC(=O)N[C@@H](Cc2ccc(F)cc2)C(=O)N(C)[C@@H](Cc2ccccc2)C(=O)N1C (stereo partly drawn) [Example 9259] ({CH2CO}-[Phe(4-F)][NMeF][NMeNle][dP]DV[NMeIle(3ξ)]Y[dPip]WY[Orn]CG-NH2; thioether N-13)	1 to 10	–
CCCC[C@H]1C(=O)N2CCC[C@@H]2C(=O)N[C@@H](CC(=O)O)C(=O)N[C@@H](C(C)C)C(=O)N(C)[C@@H](C(C)CC)C(=O)N[C@@H](CCC(N)=O)C(=O)N2CCC[C@@H]2C(=O)N[C@@H](Cc2c[nH]c3ccccc23)C(=O)N[C@@H](Cc2ccc(O)cc2)C(=O)N[C@@H](CC(C)C)C(=O)N[C@H](C(=O)NCC(N)=O)CSCC(=O)N[C@@H](Cc2ccc(F)cc2)C(=O)N(C)[C@@H](Cc2ccccc2)C(=O)N1C (stereo partly drawn) [Example 9260] ({CH2CO}-[Phe(4-F)][NMeF][NMeNle][dP]DV[NMeIle(3ξ)]Q[dP]WYLCG-NH2; thioether N-13)	1 to 10	–
